These results are taken from patent US7875745B2, “Compounds having lysophosphatidic acid receptor antagonism and uses thereof” (Ono Pharmaceutical Co., Ltd., priority 2003, dated 2011).

For assay [1], the target named is T1, human EDG-2 (Homo sapiens, UniProt Q92633).
T1 construct: expressed in transfected cells; host or cells: Chinese hamster ovary (CHO) cells
Briefly: Evaluation of EDG-2 antagonistic activity by monitoring the change of intracellular calcium ion concentration. It counts as cell-based. The settings on record: CHO cells overexpressing human EDG-2 gene; LPA 100 nM; intracellular calcium (Fura2-AM). As for the experimental part: Evaluation of EDG-2 Antagonistic Activity by Monitoring the Change of Intracellular Calcium Ion Concentration:
The EDG-2 antagonistic activity was evaluated by using Chinese hamster ovary (CHO) cells which overexpressed human EDG-2 gene. The EDG-2-expressing cells were cultured with Ham's F12 medium (manufactured by GIBCO BRL, No. 11765-047) containing 10% FBS (fetal bovine serum), penicillin/streptomycin and blasticidin (5 μg/ml). Firstly, in order to incorporate Fura2-AM (manufactured by Dojindo, No. 348-05831) into the cells, the cells were incubated in 5 μM Fura2-AM solution (10% FBS, 20 mM HEPES buffer (pH 7.4), 2.5 mM probenecid (manufactured by Sigma, No. P-8761)-containing Ham's F12 medium) at 37° C. for 60 minutes. […] A plate was set in a fluorescence drug screening system (manufactured by Hamamatsu Photonics K.K., FDSS-2000, FDSS-6000) and intracellular calcium ion concentration was measured for 30 seconds without stimulation, and a solution of the compound of present invention was added. Five minutes thereafter, LPA (final concentration: 100 nM) was added, and the intracellular calcium ion concentration before and after the addition at the interval of 3 seconds (excitation wavelength: 340 nm and 380 nm, fluorescence wavelength: 500 nm). […]

Assay [2] concerns urethral pressure of rats. As to the kind of experiment: Effect on urethral pressure of rats (in vivo). To be noted: anesthetized male CD(SD)IGS rats, intravenous, dose of 0.1 mg/kg to 1 mg/kg. The arrangement: species or system rat.
Text: Effect on Urethral Pressure of Rats (in vivo):
Male CD(SD)IGS rats (Japan Charles River, 8 to 9-week-old at the use) were anesthetized by subcutaneous administration of urethane (1.2 g/kg). After dissection at the cervical midline, a jugular vein catheter for compound administration and an artery catheter for blood pressure measurement were inserted. Next, after dissection at the hypogastric midline, the urethra was ligated under the pubic bone. An urethra catheter for urethral pressure measurement was inserted into the urethra from the dissected the top of the bladder, and ligated and fixed at the bladder neck. Each of the urethra catheter and the artery catheter was connected with a pressure-transducer, and the urethral pressure and blood pressure were measured. […] Then, the test compound was intravenously administered, and the urethral pressure and blood pressure were measured for 20 minutes. […]
The test compound was administered at respective doses. […] For the evaluation of the effect of the test compound on the urethral pressure, the values subtracting the urethral pressure before the administration from the measured urethral pressures every 2 minutes after the administration were obtained and a graph of the change with time (decreased amount of the urethral pressure from the base line) was prepared.

T1 sequence (Q92633 whole entry): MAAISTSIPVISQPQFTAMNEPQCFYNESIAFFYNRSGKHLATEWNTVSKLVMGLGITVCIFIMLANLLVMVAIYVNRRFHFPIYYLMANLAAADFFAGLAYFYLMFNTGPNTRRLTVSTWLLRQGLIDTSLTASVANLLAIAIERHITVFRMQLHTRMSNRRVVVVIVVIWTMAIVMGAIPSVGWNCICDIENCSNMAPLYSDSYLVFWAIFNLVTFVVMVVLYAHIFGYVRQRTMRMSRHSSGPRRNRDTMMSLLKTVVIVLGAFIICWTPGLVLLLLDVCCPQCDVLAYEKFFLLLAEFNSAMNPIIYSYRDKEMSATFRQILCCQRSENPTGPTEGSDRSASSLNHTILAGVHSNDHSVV

For the compound `COc1cc([C@@H](O)[C@@H](CCCc2ccccc2)Cc2ccc(CC(=O)O)cc2)cc(OC)c1OC` [Example 20(2), (4-{(2S)-2-[(S)-hydroxy(3,4,5-trimethoxyphenyl)methyl]-5-phenylpentyl}phenyl)acetic acid], in assay [1], the IC50 amounted to 0.04 µM. Moreover, in assay [2], the “change of the urethral pressure after administration” value is “significantly remarkable decrease of the urethral pressure” and the “maximum decreased amount of the urethral pressure, of the absolute value of the urethral pressure (pressure before administration - base line value after death)” value was in the range of 30 to 40%.

Usually IC50 stands for the concentration at which inhibition is half-maximal.
